Earlier results as cited in US8546362B2, “Medicinal cream made using neomycin sulphate, betamethasone valerate, and chitosan, and a process to make the same” (priority 2009, dated 2013).
Where two headings read alike, the source gives them in different places.

How the values were obtained:
[1] = test system: Moraxella lacunata; conditions: in vitro
[2] = test system: Staphylococcus aureus; conditions: in vitro
[3] = test system: Haemophilus influenzae; conditions: in vitro
[4] = test system: Escherichia coli; conditions: in vitro
[5] = test system: S. epidermidis; conditions: in vitro
[6] = test system: viruses
[7] = test system: most anaerobic bacteria
[8] = from the peritoneum, draining sinuses, wounds, or surgical sites
[9] = test system: fungi
[10] = test system: Serratia; conditions: in vitro
[11] = test system: Pseudomonas aeruginosa
[12] = test system: indole-positive and indole-negative Proteus; conditions: in vitro
[13] = test system: streptococci

Solubility (in acetone)	Solubility (in benzene)	Solubility (in chloroform)	Solubility (in ether)	Structure (SMILES)	Solubility (in alcohol)	Solubility (in water)	Concentrations that inhibit most susceptible strains [1] [µg/mL]	Concentrations that inhibit most susceptible strains [2] [µg/mL]	Concentrations that inhibit most susceptible strains [3] [µg/mL]	Concentrations that inhibit most susceptible strains [4] [µg/mL]	Concentrations that inhibit most susceptible strains [5] [µg/mL]	Antimicrobial activity [6]	Antimicrobial activity [7]	Absorption [8]	Antimicrobial activity [9]	Concentrations that inhibit most susceptible strains [10] [µg/mL]	Antibacterial activity [11]	Concentrations that inhibit most susceptible strains [12] [µg/mL]	Antibacterial activity [13]
freely soluble	slightly soluble	freely soluble	slightly soluble	CCCCC(=O)O[C@]1(C(=O)CO)[C@@H](C)C[C@H]2[C@@H]3CCC4=CC(=O)C=C[C@]4(C)[C@@]3(F)[C@@H](O)C[C@@]21C [Betamethasone Valerate, 9-Fluoro-11β, 17,21-trihydroxy-16β-methylpregna-1,4-diene-3,20-dione 17-valerate]	soluble	practically insoluble	–	–	–	–	–	–	–	–	–	–	–	–	–
–	–	–	–	NC[C@@H]1O[C@H](O[C@H]2[C@@H](O)[C@H](O[C@@H]3[C@@H](O)[C@H](N)C[C@H](N)[C@H]3O[C@H]3O[C@H](CN)[C@@H](O)[C@H](O)[C@H]3N)O[C@@H]2CO)[C@H](N)[C@@H](O)[C@@H]1O [Neomycin]	very slightly soluble	freely soluble	1 to 12.5	1 to 12.5	1 to 12.5	1 to 12.5	1 to 12.5	inactive	inactive	rapidly absorbed	inactive	1 to 12.5	generally resistant	1 to 12.5	only minimally active
